Test results as given in publication PMC10669572, “Norlobaridone Inhibits Quorum Sensing-Dependent Biofilm Formation and Some Virulence Factors in Pseudomonas aeruginosa by Disrupting Its Transcriptional Activator Protein LasR Dimerization” (Biomolecules, 2023).
≈ marks a conversion by molar mass, not a printed value.

Legend:
E. coli = assay: microbe, parasite or virus in culture; design: antibacterial MIC determination; details: Escherichia coli
P. aeruginosa [1] = assay: microbe, parasite or virus in culture; design: antibacterial MIC determination; details: Pseudomonas aeruginosa
Procedure: At this dose, NBD had no effect on the growth of P. aeruginosa, as shown by the fact that the growth curve of the bacteria in the presence of 5 μg/mL NBD was identical to the curve in the absence of the treatment (Figure S1).

P. aeruginosa [2] = assay: microbe, parasite or virus in culture; design: crystal violet biofilm formation assay in 96-well plates, OD570; details: Pseudomonas aeruginosa, 24 h, read-out: % P. aeruginosa biofilm inhibition
Procedure: In 96-well polystyrene plates, the influence of NBD on biofilm growth was studied. The experiment was carried out in the manner reported by Stepanovi et al., with a few minor changes. P. aeruginosa cells were cultured in LB medium, vortexed, then diluted 1:100 in new LB media to a final concentration of 1.5 × 10^8 CFU/mL (0.5 McFarland) for biofilm development. Cells were then cultured for 24 h at 37 °C with or without NBD. Following that, non-adherent bacteria were washed away in sterile phosphate-buffered saline (PBS), and adherent bacteria were stained for 15 min with a 1% crystal violet solution. Water was used to clean the wells in order to remove any remaining stains. The absorbance of the crystal violet solution at OD570 was determined by spectrophotometric analysis. Wells with phosphate buffer-enriched media were utilized as negative controls. As a positive control, azithromycin (AZM) was used, which inhibits biofilm formation at sub-inhibitory concentrations. […] At this dose, NBD had no effect on the growth of P. aeruginosa, as shown by the fact that the growth curve of the bacteria in the presence of 5 μg/mL NBD was identical to the curve in the absence of the treatment (Figure S1).

[3] = target: the molecule itself; assay: AUC; sedimentation velocity, 141,900 x g, 20 °C, 20 mM Hepes pH 7.5, 100 mM NaCl; LasR 0.5 and 1 mg/mL produced with and in the presence of 100 μM OdDHL; c(S) and c(M) distributions in SEDFIT

Question: How did the MIC (E. coli) turn out when `O=c1oc2c(O)c(O)cc3c(=O)oc4c(O)c(O)cc1c4c23` [Ellagic acid] was run?
Answer: 128 µg/mL (≈ 424 µM)

Question: What about the MIC (P. aeruginosa [1]) of the same molecule?
Answer: 128 µg/mL (≈ 424 µM)

Question: And the inhibition at 5 µg/mL (P. aeruginosa [2])?
Answer: 22.8%

Question: `O=C(O)c1cc(O)c(O)c(O)c1` [Gallic acid] was tested. Which MIC (E. coli) did it give?
Answer: > 256 µg/mL

Question: What about the MIC (P. aeruginosa [1]) of the same molecule?
Answer: > 256 µg/mL

Question: And the inhibition at 5 µg/mL (P. aeruginosa [2])?
Answer: 21.4%

Question: Which MIC (E. coli) does the source give for `CCCCCc1cc(O)cc2c1Oc1cc(O)cc(C(=O)CCCC)c1C(=O)O2` [NBD, norlobaridone] here?
Answer: 128 µg/mL (≈ 321 µM)

Question: And the MIC (P. aeruginosa [1])?
Answer: 128 µg/mL (≈ 321 µM)

Question: And the inhibition at 5 µg/mL (P. aeruginosa [2])?
Answer: 64.6%

Question: What does the source list for `O=C(O)c1ccc(O)cc1` [P-hydroxy benzoic acid]?
Answer: MIC (E. coli): > 256 µg/mL; MIC (P. aeruginosa [1]): 128 µg/mL (≈ 927 µM); inhibition at 5 µg/mL (P. aeruginosa [2]): 12.9%

Question: How did the MIC (E. coli) turn out when `CCCCCc1ccccc1O` [Pentylphenol] was run?
Answer: > 256 µg/mL

Question: And the MIC (P. aeruginosa [1])?
Answer: 256 µg/mL (≈ 1560 µM)

Question: What about the inhibition at 5 µg/mL (P. aeruginosa [2]) of the same molecule?
Answer: 11.4%

Question: With `Oc1cc(O)cc(O)c1` [Phloroglucinol] as the molecule, how does the MIC (E. coli) read?
Answer: 64 µg/mL (≈ 507 µM)

Question: And the MIC (P. aeruginosa [1])?
Answer: 64 µg/mL (≈ 507 µM)

Question: And the inhibition at 5 µg/mL (P. aeruginosa [2])?
Answer: 31.1%

Question: `Oc1cccc(O)c1` [Resorcinol] was tested. Which MIC (E. coli) did it give?
Answer: 128 µg/mL (≈ 1160 µM)

Question: And the MIC (P. aeruginosa [1])?
Answer: 128 µg/mL (≈ 1160 µM)

Question: What about the inhibition at 5 µg/mL (P. aeruginosa [2]) of the same molecule?
Answer: 27.7%

Question: Which MIC (E. coli) does the source give for `CC(=O)c1c(O)c(C)c(O)c(Cc2c(O)c3c(c(C(=O)/C=C/c4ccccc4)c2O)OC(C)(C)C=C3)c1O` [Rottlerin] here?
Answer: > 256 µg/mL

Question: What about the MIC (P. aeruginosa [1]) of the same molecule?
Answer: > 256 µg/mL

Question: What about the inhibition at 5 µg/mL (P. aeruginosa [2]) of the same molecule?
Answer: 7.9%

B1: LasR (Pseudomonas aeruginosa transcriptional activator protein, LuxR-type quorum sensing receptor) (natural protein)
chain: MALVDGFLELERSSGKLEWSAILQKMASDLGFSKILFGLLPKDSQDYENAFIVGNYPAAWREHYDRAGYARVDPTVSHCTQSVLPIFWEPSIYQTRKQHEFFEEASAAGLVYGLTMPLHGARGELGALSLSVEAENRAEANRFMESVLPTLWMLKDYALQSGAGLAFEHPVSKPVVLTSREKEVLQWCAIGKTSWEISVICNCSEANVNFHMGNIRRKFGVTSRRVAAIMAVNLGLITL
notes: predicted molecular weight of the single chain 26.62 kD; Produced and kept with a small-molecule ligand: odDHL (dimer) or norlobaridone, NBD (monomer); also called LasR-odDHL; NBD-LasR; source: E. coli BL21 (pET23b, 1 mM IPTG, 18 °C overnight) in the presence of 100 μM OdDHL or 100 μM NBD; purified (heparin column, MonoQ, S200 size exclusion)
Question: With B1 as the molecule, how does the “stoichiometry N” value [3] read?
Answer: 2
